These results are taken from patent publication US7652006B2, “Substituted 1(2H)-phthalazinones and pharmaceutical compositions thereof” (Euro-Celtique S.A., priority 1998, dated 2010).

The subject of data set [1] is AMPA receptors. Put plainly: electrophysiological assay, AMPA receptors expressed in oocyte. As to conditions: inhibiting or modulating AMPA receptors expressed in oocyte; read-out: AMPA IC50. In kind it is cell-based, rat. The source says:
The compounds of the present invention may be assessed by electrophysiological assays in Xenopus oocytes expressing rat whole brain poly(A)^+ RNA (see Keana et. al. J. Med. Chem. 38: 4367-4379 (1995)) or in cultured rat cortical neurons (see Woodward et. al. Mol. Pharmacol. 47: 568-581 (1995)) for AMPA receptor activity. Compounds which are useful for treating or preventing the adverse consequences of stroke, hypoglycemia, neurodegenerative disorders, anxiety, epilepsy or psychosis, or which induce analgesia, will inhibit the currents across the membranes of the oocyte expressing AMPA receptors. However, if the compound potentiates currents across the oocyte membrane, then the compound is expected to be useful in enhancing cognition or treating schizophrenia or neurodegenerative disease such as Parkinson's Disease.
The potency of antagonism or potentiation for these compounds were determined by electrophysiological assay. Potencies of selective compounds described above in inhibiting or modulating AMPA receptors expressed in oocyte and their anticonvulsant activity against maximal electroshock induced convulsion are shown in Table 1.

The subject of data set [2] is maximal electroshock induced convulsion. Put plainly: Maximal Electroshock-induced Seizure (MES) test. In kind it is in vivo, mice. As to conditions: iv, anticonvulsant activity against maximal electroshock induced convulsion; for ED50: Mus musculus. The text has this:
The compounds of the present invention may be tested for […] anticonvulsant activity after iv or ip injection using a number of anticonvulsant tests in mice (audiogenic seizure model in DBA-2 mice. pentylenetetrazol-induced seizures in mice, maximum electroshock seizure test (MES)). The anticonvulsant activity of the AMPA antagonists may be evaluated in the Maximal Electroshock-induced Seizure (MES) test. Seizures are induced by application of current (50 mA, 60 pulses/sec, […], 1 sec duration, d.c.) through saline-coated corneal electrodes using a Ugo Basile ECT device (Model 7801). […] A tonic seizure is defined as a hindlimb extension in excess of 90 degrees from the plane of the body. Results are treated in a quintal manner. The potency of antagonism or potentiation for these compounds were determined by electrophysiological assay. Potencies of selective compounds described above in inhibiting or modulating AMPA receptors expressed in oocyte and their anticonvulsant activity against maximal electroshock induced convulsion are shown in Table 1.

The structures appear in SMILES notation. pIC50: −log10 of the molar value.

For `c1cn(CCc2nc(-c3ccc4c(c3)OCO4)c3cc4c(cc3n2)OCO4)cn1` [2-(Imidazol-1-yl)ethyl-6,7-methylenedioxy-4-(3,4-methylenedioxyphenyl)quinazoline], the melting point (as a rule, the temperature of the solid-liquid transition) was in the range of 160 to 163 °C. For the same compound, the pIC50 (commonly the IC50 on a negative log10 scale, so that one unit is a factor of ten) in data set [1] is 5.40. In data set [2], the ED50 (as a rule, the midpoint of the dose-response relation) was found to be 3.1 mg/kg.
`CN(C)CCn1c(=O)nc(-c2ccc3c(c2)OCCO3)c2cc3c(cc21)OCO3` [1-(2-(dimethylamino)ethyl)-6,7-methylenedioxy-4-(3,4-ethylenedioxyphenyl)-quinazolin-2(1H)-one] came in with a melting point of 220 to 225 °C. The pIC50 in data set [1] was 6.70. Besides, the ED50 in data set [2] is 1 mg/kg.
Consider `CN(C)CCn1nc(-c2ccc3c(c2)OCO3)c2cc3c(cc2c1=O)OCO3` [2-[2-(Dimethylamino)ethyl]-4-(3,4-methylenedioxyphenyl)-6,7-methylenedioxy-1(2H)-phthalazinone], for which the pIC50 in data set [1] is 5.30. Moreover, the ED50 in data set [2] stood at 3.5 mg/kg.
`CC(C)n1c(=O)nc(-c2ccc3c(c2)OCO3)c2cc3c(cc21)OCO3` [1-Isopropyl-6,7-methylenedioxy-4-(3,4-methylenedioxyphenyl)quinazolin-2(1H)-one]: in data set [1], the pIC50 was 5.55. In addition, the ED50 in data set [2] turned out to be 3 mg/kg.
Regarding `CCn1c(=O)nc(-c2ccc3c(c2)OCCO3)c2cc3c(cc21)OCO3` [1-Ethyl-6,7-methylenedioxy-4-(3,4-ethylenedioxyphenyl)quinazolin-2(1H)-one], in data set [1], the pIC50 is 5.96. Besides, in data set [2], the ED50 worked out at 3 mg/kg.
Take `CCN(CC)CCn1c(=O)nc(-c2ccc3c(c2)OCO3)c2cc3c(cc21)OCO3` [1-[2-(diethylamino)ethyl]4-(3,4-methylenedioxyphenyl)-6,7-methylenedioxyquinazolin-2(1H)-one]: in data set [1], the pIC50 is 5.70. Further, in data set [2], the ED50 was determined as 5.2 mg/kg.
`CN(C)CCn1c(=O)nc(-c2ccc3c(c2)OCO3)c2cc3c(cc21)OCO3` [1-(2-(dimethylamino)ethyl)-6,7-methylenedioxy-4-(3,4-methylenedioxyphenyl)-quinazolin-2(1H)-one] yielded a melting point of 175 to 182 °C. Also, the pIC50 in data set [1] was 6.00. Further, the “MES ED50” value in data set [2] came out at 1.5 mg/kg.
Take `[O-][n+]1c(Cn2ccnc2)nc2cc3c(cc2c1-c1ccc2c(c1)OCO2)OCO3` [2-(Imidazol-1-yl)methyl-6,7-methylenedioxy-4-(3,4-methylenedioxyphenyl)quinazoline-3-oxide]: in data set [1], the pIC50 is 5.30. The ED50 in data set [2] stood at 5 mg/kg.
As for `CC(C)n1c(=O)nc(-c2ccc3ccccc3c2)c2cc3c(cc21)OCO3` [1-Isopropyl-6,7-methylenedioxy-4-(2-naphthyl)quinazolin-2(1H)-one], the melting point lay in the range of 213 to 215 °C. For the same compound, in data set [1], the pIC50 was 5.70. Moreover, the ED50 in data set [2] worked out at 4.5 mg/kg.
`CC(C)n1c(=O)nc(-c2cc3c(cc2Cl)OCO3)c2cc3c(cc21)OCO3` [1-Isopropyl-6,7-methylenedioxy-4-(2-chloro-4,5-methylenedioxyphenyl)quinazolin-2(1H)-one] came in with a melting point of 147 to 150 °C. For the same compound, in data set [1], the pIC50 was 5.26. In data set [2], the ED50 is 6.2 mg/kg.
On to `[O-][n+]1cnc2cc3c(cc2c1-c1ccc2c(c1)OCO2)OCO3` [6,7-Methylenedioxy-4-(3,4-methylenedioxyphenyl)quinazoline 3-oxide], for which the pIC50 in data set [1] was 5.15. Moreover, in data set [2], the ED50 was 2.5 mg/kg.
